Columns and labels:
1542CPTX = assay: Three-day MTT cell growth inhibition assay, 1542CPTX; type: cell-based, human; settings: Homo sapiens, 72 h, 3 days
[1] = as above; type: cell-based, human; settings: human, 1542CPTX cells
[2] = Three-day MTT cell growth inhibition assay, PC3M; type: cell-based, human; settings: human, PC3M cells; PC3M; 3 days
Description: (§1) Assays were in replicates of N = 3, and were repeated. […]
(§2) Values are the mean±SEM of a single experiment, in
(§3) replicates of N=4, repeated at least once (also N=4).
(§4) Supplementary Figure 1b. Synthetic round #2.

PC3M = assay: Three-day MTT cell growth inhibition assay, PC3M; type: cell-based, human
Description: as §1, §2, §3, §4

[3] = test system: phosphoproteins in PC3 cells; assay: PhosphoScan LC-MS/MS of BL4176 immunoprecipitates; type: cell-based, human
Procedure: The Kinoview™ and PhosphoScan™ assays were performed by Cell Signaling Technology Inc.
Supplementary Figure 12. Identification of the 83 kDa band using a proteomic approach.
(a) PC3 cells were pre-treated with 10 µM KBU2046 or vehicle (control) for 3 days, then treated with TGFβ for 1 hr, and the resultant cell lysates were subjected to immunoprecipitation with BL4176 (Kinoview® phospho-motif antibody). Proteins bound in this manner were analyzed in replicates of N=2 using PhosphoScan™ technology. This identified 483 unique phosphopeptide assignments from 306 parent proteins, with a mean false discovery rate of 0.30% (estimated via Sorcerer search of composite human database of forward and reverse protein entries). We only considered proteins where the average values for treatment and control were each 3 times that of background. Further, we required each of the N=2 replicate values (used to calculate the average) to be >/= 2.5 fold above background. We were only interested in situations in which protein decreased with KBU2046, and we required that decrease to be >/= 2.5 fold, compared to control.
According to these parameters, there were 19 phospho-proteins whose expression decreased in cells treated with KBU2046, compared to control. These are depicted above. Recognizing that each of these proteins may have value, we elected to remain focused on the 83 kDa protein, and therefore only considered proteins +/- 5 kDa of this value. Only heat shock protein 90 (HSP90)β

[4] = target: T1, client kinase binding to CDC37/HSP90β heterocomplexes in HEK293T cells (Homo sapiens, UniProt P08238+Q16543); assay: LUMIER assay of client kinase binding; type: cell-based
T1 construct: expressed in transfected cells; host or cells: HEK293T
Procedure: The LUMIER assay was performed as described, using reagents generously provided by that group.
Supplementary Figures 17. KBU2046-mediated changes in the signature of client proteins bound to HSP90β/CDC37 mediate effects upon cell motility.
LUMIER assay (a). HEK293T cells stably transfected with HSP90β-luciferase were transfected with 1 of 420 different FLAG-tagged protein kinases, treated with 10 µM KBU2046 for 3 days, and LUMIER assays performed as described 12. All experiments had N = 5 vehicle treated control plus N = 5 KBU2046 treated separate wells of cells. Those yielding a t-test p value <0.05 […]
in experiment #1, or those whose values were at or below baseline, were repeated in experiment […]
hetercomplex association with KBU2046 treatment in the same direction in both experiments were selected. Of 420 kinase proteins tested, 17 (4%) met these criteria (graphically depicted in manuscript Fig. 6a). For these 17 kinases, the experiment was repeated except that HEK293T cells were treated with TGFβ for the last 24 hrs of the 3 day incubation (graphically depicted in manuscript Fig. 6b). Wound healing assay (b-d). […]

T1 sequence (P08238 whole entry): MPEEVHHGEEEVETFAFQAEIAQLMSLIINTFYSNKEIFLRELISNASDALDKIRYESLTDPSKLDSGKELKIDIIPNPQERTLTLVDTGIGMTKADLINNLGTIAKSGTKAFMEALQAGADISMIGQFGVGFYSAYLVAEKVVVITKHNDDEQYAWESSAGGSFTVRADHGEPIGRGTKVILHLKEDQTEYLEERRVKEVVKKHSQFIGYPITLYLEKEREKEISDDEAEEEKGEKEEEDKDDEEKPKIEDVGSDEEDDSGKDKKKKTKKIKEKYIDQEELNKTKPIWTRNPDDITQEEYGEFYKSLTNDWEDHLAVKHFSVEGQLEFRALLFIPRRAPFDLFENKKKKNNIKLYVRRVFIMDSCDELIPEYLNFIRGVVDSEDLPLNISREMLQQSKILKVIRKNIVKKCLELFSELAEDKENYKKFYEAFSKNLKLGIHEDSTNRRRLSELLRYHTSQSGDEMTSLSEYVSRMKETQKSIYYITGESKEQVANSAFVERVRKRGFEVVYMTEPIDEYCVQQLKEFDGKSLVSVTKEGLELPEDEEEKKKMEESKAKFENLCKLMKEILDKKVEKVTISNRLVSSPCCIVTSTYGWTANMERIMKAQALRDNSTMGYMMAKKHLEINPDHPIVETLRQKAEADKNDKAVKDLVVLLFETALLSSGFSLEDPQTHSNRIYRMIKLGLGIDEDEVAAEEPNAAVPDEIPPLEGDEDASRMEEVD
T1 sequence (Q16543 whole entry): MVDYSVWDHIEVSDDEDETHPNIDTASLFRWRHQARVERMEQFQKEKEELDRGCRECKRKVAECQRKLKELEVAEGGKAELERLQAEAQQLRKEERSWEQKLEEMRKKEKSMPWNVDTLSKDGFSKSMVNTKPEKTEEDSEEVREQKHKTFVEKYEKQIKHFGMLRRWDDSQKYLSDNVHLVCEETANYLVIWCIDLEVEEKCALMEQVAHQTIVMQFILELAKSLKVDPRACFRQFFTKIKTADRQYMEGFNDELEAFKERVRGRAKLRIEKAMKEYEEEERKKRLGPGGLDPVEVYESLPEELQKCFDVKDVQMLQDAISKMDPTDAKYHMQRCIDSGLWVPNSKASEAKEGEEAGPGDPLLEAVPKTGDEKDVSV

## O=C1c2ccccc2OCC1c1ccc(F)cc1 (racemic) [KBU2046, (±)-3(4-fluorophenyl)chroman-4-one]
1542CPTX
  IC20: > 50 µM
  IC50: > 50 µM
[1]
  viability at 3 days, 50 µM: 104%
[2]
  viability at 3 days, 50 µM: 100%
PC3M; Homo sapiens, PC-3M, 72 h, PC3M, concentration inhibiting cell growth by 20% after 3 days
  IC20: > 50 µM
PC3M; Homo sapiens, PC-3M, 72 h, PC3M, concentration inhibiting cell growth by 50% after 3 days
  IC50: > 50 µM
PC3M; PC3-M cells, three day MTT, SAR rounds
  cell growth inhibition: no growth inhibitory
[3]; AALDALNT*DDENDEEEYEAWK
  fold change, MFAP1: -21.8 fold
[3]; CNT*DDTIGDLKK
  fold change, UBL5: -2.9 fold
[3]; DLLS*DLQDIS*DSER
  fold change, PITSLRE: -3.3 fold
[3]; DQKLS*ELDDR
  fold change, VAMP1: -3.6 fold
[3]; DRPHAS*GT*DGDES*EEDPPEHKPSK
  fold change, PIMT: -4.7 fold
[3]; DRPHASGT*DGDES*EEDPPEHKPSK
  fold change, PIMT: -3.0 fold
[3]; EIS*DDEAEEEKGEKEEEDKDDEEKPK
  fold change, HSP90B: -6.6 fold
[3]; ERDHS*PTPSVFNS*DEER
  fold change, FIP1L1: -2.9 fold
[3]; GHHVT*DSENDEPLNLNAS*DSESEELHR
  fold change, IWS1: -3.2 fold
[3]; HVLS*DLEDDEVR
  fold change, NIN: -3.1 fold
[3]; LLKPGEEPS*EYT*DEEDTKDHNK, PC3, 10 µM 3 days, TGFβ 1 hr
  fold change, PGRMC2: -2.5 fold
[3]; MQNT*DDEERPQLS*DDER
  fold change, LEO1: -3.4 fold
[3]; NGSLDSPGKQDT*EEDEEEDEKDKGK
  fold change, NudC: -2.5 fold
[3]; PC3 cells, KBU2046 then TGFβ
  decrease in abundance of phosphorylated Ser226 on HSP90β: 6.6 fold
[3]; S*ES*SDFEVVPK
  fold change, BAT2D1: -2.7 fold
[3]; SEDGYHS*DGDYGEHDYR
  fold change, RBM5: -2.7 fold
[3]; SRS*DIDVNAAAGAK
  fold change, CLASP2: -2.4 fold
[3]; TKFAS*DDEHDEHDENGATGPVK
  fold change, SSB: -4.5 fold
[3]; VGPGNHGTEGS*GGERHS*DTDS*DRR
  fold change, SEC62: -2.8 fold
[3]; VGPGNHGTEGSGGERHS*DT*DSDRR
  fold change, SEC62: -2.6 fold
[4]; 10 µM, 3 days
  number of kinases with decreased binding: 7
  number of kinases with increased binding: 10
[4]; TGFβ-treated cells
  RAF1 binding to complexes: decreased binding
  RIPK1 binding to complexes: decreased
  SGK3 binding to complexes: increased
[4]; as stated in rebuttal letter
  share of client proteins with affected binding: 1%
[4]; in cells
  CK2 binding to the HSP90β/CDC37 heterocomplex: not alter the binding of CK2
[4]; of 420 kinase proteins screened
  share of kinases with significantly changed binding: 4%
[4]; of 420 kinase proteins screened, 10 µM, 3 days
  number of kinases with significantly changed binding: 17

Source: paper PMC6014988, “Precision therapeutic targeting of human cancer cell motility” (Nature Communications, 2018)
